Assay results taken from patent publication US20130217094A1, “ENZYME SOLUTION FOR SEPARATING CELL, METHOD FOR SEPARATING CELL AND METHOD FOR SEPARATING PANCREATIC ISLET” (BIO LINK, INCORPORATED, priority 2010, published 2013).

Assays:
pancreatic islets [1] = test: Separation of pancreatic islets from rats with the enzyme solution: yield of pancreatic islets; assay type: cell-based; conditions: per rat, n=8; collagenase (2 mg/mL) Hanks' solution infused via pancreatic duct, 37° C. 32 minutes; DIDS 200 μM or NaCl substituted with sodium glutamate
Protocol: The rats were grouped into three groups (a control group, a DIDS group, a low Cl^− group) each including 8 rats, then abdominal section was carried out to each rat under ether anesthesia, the choledoch duct was clamped in the vicinity of the entrance of the duodenum, and cannula was inserted. Then, 12 mL of Hanks' solution (NaCl: […], KCl: 400 mg/mL, MgSG4: 48.8 mg/mL, MgCl2: 46.8 mg/mL, CaCl2: 140 mg/mL, KH2PO4: 60 mg/mL, Na HPO4: 47.9 mg/mL and glucose: 1000 mg/mL) containing collagenase (2 mg/mL) was infused into the pancreas via the pancreatic duct from the cannula. However, to the DIDS group, DIDS (200 μM) as a chloride ion channel inhibitor was further added, and to the low Cl^− group, sodium chloride in the Hanks' solution was substituted with sodium glutamate.
The pancreas that had been swollen by infusion of the solution was extracted, and incubated at 37° C. for 32 minutes. Thereafter, degraded tissue was placed into 50 mL conical tube, and the Hanks' solution at 4° C. was added so as to stop the enzyme reaction. The tube was gently shaken, and subjected to centrifugation at 320G for 10 to 15 seconds. […]
For the yield of the pancreatic islets, IEQ (islet equivalents; the number of pancreatic islets based on the diameter of 150 μm) as a unit is used. […] Note here that the number of pancreatic islets whose diameter was less than 50 μm was not counted.

pancreatic islets [2] = test: Evaluation of damages in pancreatic islets (AO/PI staining, viability); assay type: cell-based, rats; conditions: AO/PI fluorescence area, n=8 in each group; islets separated in Example 1
From the text: The degree of damage of pancreatic islets can be evaluated based on whether or not a barrier function of the cell membrane can be maintained. Then, the pancreatic islets of each group separated in Example 1 (n=8 in each group) was stained with acridine orange (AO) and propidium iodide as fluorescent dye. Note here that AO is taken in cells even in living cells to emit green fluorescence, and PI is taken into cells by failure of the barrier function of the cell membrane and bound to DNA to emit red fluorescence. Specifically, AO (10 μM) and PI (15 μM) were dissolved in PBS to form a solution, the pancreatic islets were incubated in the resultant solution for 10 minutes, and then the pancreatic islets were observed under fluorescence microscope. Then, by using image analysis software (Image J free software), an area of the green fluorescence and an area of the red fluorescence were obtained, the rate (%) of the area of green fluorescence excluding the area of the red fluorescence was defined as the viability (%) of pancreatic islet.

pancreatic islets [3] = test: Secretion of insulin by glucose stimulation (ELISA); assay type: cell-based, rats; conditions: 60 minutes, islets 150 to 200 μm, n=10
Protocol: As a medium, RPMI1640 medium containing 3.3 mM glucose and 0.1% fetal bovine serum was used, and conditions were set at 37° C. and in 5% CO2/95% air condition. In measurement, the Transwell medium on which pancreatic islets were placed was subjected to RPMI1640 medium containing 3.3 mM glucose and 0.1% fetal bovine serum, and pre-cultured for 60 minutes. Note here that the culture was carried out at 37° C. and in 5% CO2/95% air conditions. Thereafter, the Transwell medium on which pancreatic islets were placed was moved to a new well containing the similar medium and stood still for 60 minutes (sample A). […] Thereafter, the media of the sample A and the sample B were recovered, and insulin contained in the medium was measured by using an insulin measurement kit (manufactured by Morinaga Biochemical Lab, Inc.) using the ELISA method. Then, the value obtained by dividing the insulin level of the sample B by the insulin level of the sample A was defined as an insulin secretion stimulation index.

diabetes model SCID mice = test: Transplantation of pancreatic islets to diabetes model SCID mice; assay type: in vivo
Protocol: Note here that in the following Examples, rats at an age of 9 to 10 weeks were used as a donor of the pancreatic islets. Furthermore, as a recipient, SCID mice at an age of 9 to 10 weeks were used. Streptozocin (STZ; 250 mg/kg) was intraperitoneally administered to SCID mice under anesthesia of diethyl ether, and β cells were destroyed to induce diabetes. Mice whose casual blood glucose level exceeds 350 mg/dL for two continuous days were regarded as diabetes mice, and they were used as the recipients. […] For the screening of the diabetes model SCID mice, mice whose casual blood glucose level exceeds 350 mg/dL for two continuous days by collection of blood were employed. In transplantation, the mice were subjected to ether anesthesia, and pancreatic islet was infused into the renicapsule of the left kidney by using a 250 μL pipette tip. After transplantation, the blood was recovered every day for the first seven days, and the blood glucose level was measured, and thereafter, the blood glucose level was measured three times a week. Then, on Day 30 after transplantation, the pancreatic islet-transplanted kidney was extracted. Note here that the definition of cure of diabetes was a case in which the blood glucose level was less than 150 mg/dL for three continuous days and the blood glucose level after nephrectomy was increased to more than 250 mg/dL.

## O=S(=O)([O-])c1cc(N=C=S)ccc1C=Cc1ccc(N=C=S)cc1S(=O)(=O)[O-].[Na+].[Na+] [DIDS, 4,4′-di(isothiocyano)stilbene-2,2′-disodium disulfonate]
Pancreatic islets [1]
  yield of the pancreatic islets: 1969±244 IEQ
Pancreatic islets [2]
  viability of the pancreatic islets: 84.9±4.9%
Pancreatic islets [3]; 3.3 mM glucose
  insulin secretion sample A (3.3 mM glucose): 1.94 ± 0.44 μU
Pancreatic islets [3]; 20 mM glucose
  insulin secretion sample B (20 mM glucose): 19.0 ± 4.46 μU
Diabetes model SCID mice; 200 IEQ islets transplanted to renicapsule of left kidney, STZ diabetes SCID mice, n=5
  blood glucose level on Day 1 to 2 after the transplantation: 78.7 ± 52.7 mg/dL
Diabetes model SCID mice; 200 IEQ islets transplanted, n=5 in each group
  mice that came to have a normal blood glucose (<150 mg/dL): all of five mice
